From ChEMBL document CHEMBL1201862, “PubChem BioAssay data set” (2004)
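Where inhibition never reached the appropriate level, the endpoint shown equals the highest concentration tested. Otherwise, values were interpolated linearly from a five-concentration, 48-hour dose response in 96-well plates. At the GI50, growth is halved.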 The source made the active and inactive calls. No stated cut-off is given here; in the data, active = GI50 up to about 1.1 µM and inactive = higher.

Experiments:
Test in all cases: growth of human tumour cells (NCI), 48 h
[1] = system: RXF 631
[2] = system: DMS-114
[3] = system: M19-MEL
[4] = system: XF498
[5] = system: KM-20L2
[6] = system: LXFL 529
[7] = system: SNB-78
[8] = system: DLD-1
[9] = system: HOP-18

| SMILES | GI50 [1] | GI50 [2] | GI50 [3] | GI50 [4] | GI50 [5] | GI50 [6] | GI50 [7] | GI50 [8] | GI50 [9] |
| --- | --- | --- | --- | --- | --- | --- | --- | --- | --- |
| CCCCn1c(-c2ccccc2)cs/c1=N\N=C1C=C(C(C)(C)C)C(=O)C(C(C)(C)C)=C1 | > 100 µM (inactive) | > 100 µM (inactive) | > 100 µM (inactive) | > 100 µM (inactive) | > 100 µM (inactive) | > 100 µM (inactive) |  |  |  |
| O=c1[nH]c2cccccc-2c1-c1nc2ccccc2[nH]1 |  | 10.3 µM (inactive) | 34.2 µM (inactive) | 18.5 µM (inactive) | 46.5 µM (inactive) | 22.2 µM (inactive) | 25.7 µM (inactive) | 32.4 µM (inactive) |  |
| COc1ccc(C2S/C(=C\c3cc(OC)c(OC)c(OC)c3)C(=O)N2NC(=O)Cc2ccccc2)cc1 (stereo unspecified) |  | 72.9 µM (inactive) | > 100 µM (inactive) |  |  | 61.9 µM (inactive) |  | 94.2 µM (inactive) | > 100 µM (inactive) |
| OCCN(CCO)c1cccc(N(CCO)CCO)n1 | > 100 µM (inactive) | > 100 µM (inactive) | > 100 µM (inactive) | 27.7 µM (inactive) | > 100 µM (inactive) | > 100 µM (inactive) | > 100 µM (inactive) | > 100 µM (inactive) |  |
| CC(=O)N/C(=C\c1ccc(Cc2nc3c([nH]2)C(=O)c2ccccc2C3=O)cc1)c1nc2c([nH]1)C(=O)c1ccccc1C2=O |  | > 100 µM (inactive) | > 100 µM (inactive) |  | > 100 µM (inactive) | > 100 µM (inactive) |  | > 100 µM (inactive) |  |
| COc1ccccc1C(N)c1ccccc1 (stereo unspecified) |  | > 100 µM (inactive) | > 100 µM (inactive) |  | > 100 µM (inactive) | > 100 µM (inactive) | > 100 µM (inactive) | > 100 µM (inactive) | > 100 µM (inactive) |
| CC(C)(C)OC(=O)N1C2CCCC23O[C@@H]1c1cc2c(cc1C3=O)OCO2 (stereo partly specified) | 27.2 µM (inactive) | 19.9 µM (inactive) | 26.6 µM (inactive) | 26.6 µM (inactive) |  | 44.3 µM (inactive) | > 100 µM (inactive) | 27.1 µM (inactive) |  |
| Cc1ccc(NC(=O)CCC(=O)C2CC(=O)CC/C2=N\NC(=O)c2cc3ccccc3cc2O)cc1C (stereo unspecified) | 32.6 µM (inactive) | 19.8 µM (inactive) | 27.4 µM (inactive) | 31.1 µM (inactive) | 27.5 µM (inactive) | 21.4 µM (inactive) | 28.6 µM (inactive) | 30.5 µM (inactive) | 21.8 µM (inactive) |
| C=CCNC(=O)N(CCC)CCCCC(NC(C)=O)C(=O)NCc1ccccc1 (stereo unspecified) |  | > 100 µM (inactive) | > 100 µM (inactive) | > 100 µM (inactive) | > 100 µM (inactive) | > 100 µM (inactive) |  |  | 72.1 µM (inactive) |
| CC1=CC2=C(OCO1)C(=O)c1ccccc1C2=O |  | 3.35 µM (inactive) | 1.79 µM (inactive) |  | 22.9 µM (inactive) | 21.7 µM (inactive) | 33.1 µM (inactive) | 21.5 µM (inactive) | 12.4 µM (inactive) |
| CCC1(OC(=O)CN)C(=O)OCc2c1cc1n(c2=O)Cc2cc3ccccc3nc2-1 (stereo unspecified) |  | 0.00989 µM (active) | 0.123 µM (active) | 0.147 µM (active) | 0.124 µM (active) | 0.546 µM (active) | 0.738 µM (active) | 0.25 µM (active) | 0.0975 µM (active) |
| CCOC(=O)c1cc2c(cn1)[nH]c1cccc(N)c12 |  | > 100 µM (inactive) | > 100 µM (inactive) | > 100 µM (inactive) |  | > 100 µM (inactive) | > 100 µM (inactive) | > 100 µM (inactive) | > 100 µM (inactive) |
| CC(C)(C)C(=O)Cc1cc2c(cc1C(=O)O)S(=O)(=O)NC(C(C)(C)C)=C2 |  | > 100 µM (inactive) | > 100 µM (inactive) |  |  | > 100 µM (inactive) | > 100 µM (inactive) | > 100 µM (inactive) |  |
| COc1ccc(Cc2nccc3cc(OC)c(OC)cc23)cc1 |  | 29.7 µM (inactive) | 98.4 µM (inactive) | 23.8 µM (inactive) | > 100 µM (inactive) | 28 µM (inactive) | > 100 µM (inactive) | > 100 µM (inactive) |  |
| Nc1ccn(CCOC(c2ccccc2)P(=O)(O)O)c(=O)n1 (stereo unspecified) |  | > 100 µM (inactive) | > 100 µM (inactive) | > 100 µM (inactive) | > 100 µM (inactive) | > 100 µM (inactive) | > 100 µM (inactive) | > 100 µM (inactive) |  |
| C=CCN(N=O)C(=O)NCCCC(NC(C)=O)C(=O)NCc1ccccc1 (stereo unspecified) | > 100 µM (inactive) | > 100 µM (inactive) | > 100 µM (inactive) | > 100 µM (inactive) | > 100 µM (inactive) | > 100 µM (inactive) |  |  | 10.9 µM (inactive) |
| NC(=O)c1csc(C2OC(COP(=O)(O)CP(=O)(O)OCC3OC(n4cnc5c(N)ncnc54)C(O)C3O)C(O)C2O)n1 (stereo unspecified) | > 100 µM (inactive) | > 100 µM (inactive) | > 100 µM (inactive) | > 100 µM (inactive) | > 100 µM (inactive) | > 100 µM (inactive) | > 100 µM (inactive) | > 100 µM (inactive) | > 100 µM (inactive) |
| CC1(C)N=C(Oc2ccccc2)n2nccc2N1 |  | > 100 µM (inactive) | > 100 µM (inactive) | > 100 µM (inactive) | > 100 µM (inactive) | > 100 µM (inactive) |  | > 100 µM (inactive) | > 100 µM (inactive) |
| C=C1C(=O)C23C(O)CC4C(C)(C)CCC(O)C4(C)C2CC(OC(C)=O)C1[C@H]3O (stereo partly specified) | 4.8 µM (inactive) |  | 1.61 µM (inactive) | 1.91 µM (inactive) | 3.15 µM (inactive) | 1.07 µM (active) | 0.925 µM (active) | 1.69 µM (inactive) | 2.27 µM (inactive) |
| Cc1cccc2c(O)cc(=O)oc12 |  | > 100 µM (inactive) | > 100 µM (inactive) | > 100 µM (inactive) | > 100 µM (inactive) | > 100 µM (inactive) | > 100 µM (inactive) | > 100 µM (inactive) | > 100 µM (inactive) |
| CCCCCCCCCCCCCCCC[N+](C)(C)Cc1ccc(C[N+](C)(C)CCCCCCCCCCCCCCCC)cc1 | 2.19 µM (inactive) | 1.85 µM (inactive) | 2.67 µM (inactive) |  | 3.62 µM (inactive) | 8.09 µM (inactive) | 2.73 µM (inactive) | 3.48 µM (inactive) | 1.67 µM (inactive) |
| CCn1c(=O)nc2n(-c3ccccc3)c3ccccc3nc-2c1=O |  | 11.1 µM (inactive) | 10.6 µM (inactive) | 4.83 µM (inactive) | 10 µM (inactive) | 28.4 µM (inactive) | 49.8 µM (inactive) | 28.3 µM (inactive) | 61.4 µM (inactive) |
